Activity and IC50 data for 2 molecules are collected here from ChEMBL document CHEMBL1158976, “Efficient Isolation of Glycosidase Inhibitory Stilbene Glycosides from Rheum palmatum” (J Nat Prod, 1991).

Each structure is given as a SMILES string. Values after ≈ are worked out from the molar mass of the structure shown. Active and inactive are the calls of the source. No cut-off for these calls is given here.

The test system of one test is Biomphalaria glabrata. Briefly: Molluscicidal activity against Biomphalaria glabrata at 200 ppm. The test is classed as functional, organism-based.
A short description of test [1]: Inhibition of yeast alpha-glucosidase. Details: species or system Saccharomyces cerevisiae.

What is called IC50 is the concentration that gives 50% inhibition. Low values mean greater potency in that assay, high ones weaker potency in that assay. As for `COc1ccc(/C=C/c2cc(O)cc(O[C@@H]3O[C@H](CO)[C@@H](O)[C@H](O)[C@H]3O)c2)cc1`, the outcome with Biomphalaria glabrata was inactive. In test [1], this molecule registered an IC50 of 280 µg/mL (≈ 692 µM).
For the molecule `COc1ccc(/C=C/c2cc(O)cc(O[C@@H]3O[C@H](CO)[C@@H](O)[C@H](O)[C@H]3O)c2)cc1O` [RHAPONTIN], the result with Biomphalaria glabrata was inactive. In test [1], the IC50 worked out at 600 µg/mL (≈ 1430 µM).
